Reference: patent US8937096B2, “Use of benzo-fused heterocyle sulfamide derivatives for the treatment of mania and bipolar disorder” (priority 2005, dated 2015)

Columns and labels:
Wistar rats = test: Chronic Mild Stress Model (Chronic); type: in vivo, rat
From the text: In the chronic mild stress (CMS) model rats subjected to a variety of mild stressors for a prolonged period of time show, among other behavioral, biochemical and physiological impairments, a substantial decrease in their responsiveness to rewarding stimuli. This deficit is usually monitored by a decrease in the consumption of the 1% sucrose solution, but can also be seen in other tests, such as place preference conditioning or intracranial self-stimulation. Since the subsensitivity to reward appears to reflect anhedonia (inability to experience pleasure), which is a core symptom of major depressive disorders, the CMS procedure may serve as a suitable research tool in studies into the mechanisms of antidepressant action.
Male Wistar rats were brought into the laboratory two months before the start of the experiment. Except as described below, the animals were singly housed with food and water freely available, and were maintained on a 12-h light/dark and in a constant temperature (22±2° C.) and humidity (50±5%) conditions.
The animals were first trained to consume a 1% sucrose solution; training consisted of eight 1 h baseline tests in which sucrose was presented, in the home cage, following 14 h food and water deprivation; the sucrose intake was measured by weighing pre-weighed bottles containing the sucrose solution, at the end of the test. Subsequently, sucrose consumption was monitored, under similar conditions, at weekly intervals throughout the whole experiment.
On the basis of their sucrose intakes in the final baseline test, the animals were divided into two matched groups. One group of animals was subjected to the chronic mild stress procedure for a period of 7 consecutive weeks. […]
All results obtained in this study were analyzed by multiple analyses of variance with three between-subjects factors (stress/control, drug treatments and successive sucrose tests). […]

[1] = system: stressed and non-stressed animals; test: Resident/Intruder Assay (Chronic Social Stress Assay); type: in vivo; design: Locomotor Mean ± SD / Rearing Mean ± SD / Sniffing Down Mean ± SD / Sniffing Up Mean ± SD: unit not given here
From the text: The behavioral resident/intruder assay is used to screen compounds for anti-depressant-like activity.

[2] = non-stressed, 60 mg/kg p.o., week 1
[3] = non-stressed, 60 mg/kg p.o., week 5
[4] = non-stressed, 120 mg/kg p.o., week 1
[5] = non-stressed, 120 mg/kg p.o., week 5
[6] = stressed, 60 mg/kg p.o., week 1
[7] = stressed, 60 mg/kg p.o., week 5
[8] = stressed, 120 mg/kg p.o., week 1
[9] = stressed, 120 mg/kg p.o., week 5
[10] = non-stressed, 10 mg/kg p.o., week 1
[11] = non-stressed, 10 mg/kg p.o., week 5
[12] = stressed, 10 mg/kg p.o., week 1
[13] = stressed, 10 mg/kg p.o., week 5

`NS(=O)(=O)NC[C@H]1COc2cc(Cl)ccc2O1` [Compound #8, (2S)-(−)-N-(6-Chloro-2,3-dihydro-benzo[1,4]dioxin-2-ylmethyl)-sulfamide] was tested, and the “activity in the CMS model of depression” value (Wistar rats; 12, 30 or 60 mg/kg i.p.) was “inactive in the CMS model of depression”, the “activity in the resident/intruder assay” value ([1]; 60 and 120 mg/kg p.o.) was “active in the resident/intruder assay” and the “Forced Swim Test: Immobility during 5 min: Week 5 Mean ± SD” value (from here on “Forced Swim Test … Week 5 Mean ± SD”) ([1]; non-stressed, 60 mg/kg p.o.) was 164.3 ± 25.3. The “Sucrose Intake Mean ± SD Week 3” value ([1]; non-stressed, 60 mg/kg p.o.) was 90.9 ± 3.5, the “Sucrose Intake Mean ± SD Week 4” value ([1]; non-stressed, 60 mg/kg p.o.) was 92.3 ± 1.4 and the “Sucrose Intake Mean ± SD Week 5” value ([1]; non-stressed, 60 mg/kg p.o.) was 88.9 ± 7.4. For the same compound, the “Locomotor Mean ± SD” value [1, 2] was 8288.6 ± 2117.5, the “Rearing Mean ± SD” value [1, 2] was 49.6 ± 8.7 and the “Sniffing Down Mean ± SD” value [1, 2] was 20.9 ± 3.3. The “Sniffing Up Mean ± SD” value [1, 2] was 44.1 ± 9.4, the “Locomotor Mean ± SD” value [1, 3] was 7922.9 ± 1476 and the “Rearing Mean ± SD” value [1, 3] was 37.4 ± 11.5. The “Sniffing Down Mean ± SD” value [1, 3] was 23.5 ± 6.4, the “Sniffing Up Mean ± SD” value [1, 3] was 33.4 ± 11.2 and the “Forced Swim Test … Week 5 Mean ± SD” value ([1]; non-stressed, 120 mg/kg p.o.) was 136.7 ± 34.9. The “Sucrose Intake Mean ± SD Week 3” value ([1]; non-stressed, 120 mg/kg p.o.) was 83.6 ± 22.1, the “Sucrose Intake Mean ± SD Week 4” value ([1]; non-stressed, 120 mg/kg p.o.) was 91.3 ± 4.6 and the “Sucrose Intake Mean ± SD Week 5” value ([1]; non-stressed, 120 mg/kg p.o.) was 89.3 ± 5.1. For the same compound, the “Locomotor Mean ± SD” value [1, 4] was 8056.6 ± 867.2, the “Rearing Mean ± SD” value [1, 4] was 42 ± 10.6 and the “Sniffing Down Mean ± SD” value [1, 4] was 22.8 ± 3.7. The “Sniffing Up Mean ± SD” value [1, 4] was 37.6 ± 8.4, the “Locomotor Mean ± SD” value [1, 5] was 8648.3 ± 1060.9 and the “Rearing Mean ± SD” value [1, 5] was 36.5 ± 6.3. The “Sniffing Down Mean ± SD” value [1, 5] was 25.5 ± 4.1, the “Sniffing Up Mean ± SD” value [1, 5] was 33.5 ± 5.9 and the “Forced Swim Test … Week 5 Mean ± SD” value ([1]; stressed, 60 mg/kg p.o.) was 175.1 ± 29.5. For the same compound, the “Sucrose Intake Mean ± SD Week 3” value ([1]; stressed, 60 mg/kg p.o.) was 92.1 ± 3.2, the “Sucrose Intake Mean ± SD Week 4” value ([1]; stressed, 60 mg/kg p.o.) was 89.5 ± 6.9 and the “Sucrose Intake Mean ± SD Week 5” value ([1]; stressed, 60 mg/kg p.o.) was 92.4 ± 4.5. For the same compound, the “Locomotor Mean ± SD” value [1, 6] was 5858.5 ± 708.2, the “Rearing Mean ± SD” value [1, 6] was 26.5 ± 6.1 and the “Sniffing Down Mean ± SD” value [1, 6] was 13 ± 3.3. For the same compound, the “Sniffing Up Mean ± SD” value [1, 6] was 25 ± 7.3, the “Locomotor Mean ± SD” value [1, 7] was 7080.9 ± 1238.7 and the “Rearing Mean ± SD” value [1, 7] was 32.8 ± 10.3. For the same compound, the “Sniffing Down Mean ± SD” value [1, 7] was 24.8 ± 5.7, the “Sniffing Up Mean ± SD” value [1, 7] was 30.6 ± 11.1 and the “Forced Swim Test … Week 5 Mean ± SD” value ([1]; stressed, 120 mg/kg p.o.) was 128.3 ± 37.4. The “Sucrose Intake Mean ± SD Week 3” value ([1]; stressed, 120 mg/kg p.o.) was 76.1 ± 20.8, the “Sucrose Intake Mean ± SD Week 4” value ([1]; stressed, 120 mg/kg p.o.) was 75.5 ± 20.6 and the “Sucrose Intake Mean ± SD Week 5” value ([1]; stressed, 120 mg/kg p.o.) was 87.4 ± 7.9. The “Locomotor Mean ± SD” value [1, 8] was 6168.3 ± 1132.1, the “Rearing Mean ± SD” value [1, 8] was 29.3 ± 7 and the “Sniffing Down Mean ± SD” value [1, 8] was 13 ± 3.6. For the same compound, the “Sniffing Up Mean ± SD” value [1, 8] was 27.5 ± 6.1, the “Locomotor Mean ± SD” value [1, 9] was 6444 ± 1010.3 and the “Rearing Mean ± SD” value [1, 9] was 30.1 ± 6.4. For the same compound, the “Sniffing Down Mean ± SD” value [1, 9] was 22.5 ± 4.1 and the “Sniffing Up Mean ± SD” value [1, 9] was 30.4 ± 7.5.
In the case of `COc1ccc(C(CN(C)C)C2(O)CCCCC2)cc1` (stereo not drawn) [Venlafaxine, venlafaxine, reference compound], the “treatment time after which increases in sucrose intake in stressed animals reached statistical significance vs Week 0” value (Wistar rats; stressed animals, i.p. once daily) was “four weeks”, the “Forced Swim Test … Week 5 Mean ± SD” value ([1]; non-stressed, 10 mg/kg p.o.) was 181.8 ± 27.6 and the “Sucrose Intake Mean ± SD Week 3” value ([1]; non-stressed, 10 mg/kg p.o.) was 88.4 ± 9.1. The “Sucrose Intake Mean ± SD Week 4” value ([1]; non-stressed, 10 mg/kg p.o.) was 91.5 ± 5.6, the “Sucrose Intake Mean ± SD Week 5” value ([1]; non-stressed, 10 mg/kg p.o.) was 87.9 ± 15.0 and the “Locomotor Mean ± SD” value [1, 10] was 9094.9 ± 1832.7. The “Rearing Mean ± SD” value [1, 10] was 48.3 ± 11.2, the “Sniffing Down Mean ± SD” value [1, 10] was 27.1 ± 5.2 and the “Sniffing Up Mean ± SD” value [1, 10] was 43.3 ± 8.9. For the same compound, the “Locomotor Mean ± SD” value [1, 11] was 8078.6 ± 1665.2, the “Rearing Mean ± SD” value [1, 11] was 40.1 ± 8.9 and the “Sniffing Down Mean ± SD” value [1, 11] was 27 ± 4.7. For the same compound, the “Sniffing Up Mean ± SD” value [1, 11] was 38.6 ± 7.7, the “Forced Swim Test … Week 5 Mean ± SD” value ([1]; stressed, 10 mg/kg p.o.) was 190.4 ± 36.8 and the “Sucrose Intake Mean ± SD Week 3” value ([1]; stressed, 10 mg/kg p.o.) was 74.5 ± 16.7. For the same compound, the “Sucrose Intake Mean ± SD Week 4” value ([1]; stressed, 10 mg/kg p.o.) was 76.1 ± 18.2, the “Sucrose Intake Mean ± SD Week 5” value ([1]; stressed, 10 mg/kg p.o.) was 73.3 ± 17.6 and the “Locomotor Mean ± SD” value [1, 12] was 6233.6 ± 1087.2. For the same compound, the “Rearing Mean ± SD” value [1, 12] was 30.8 ± 6.6, the “Sniffing Down Mean ± SD” value [1, 12] was 14.9 ± 3.5 and the “Sniffing Up Mean ± SD” value [1, 12] was 28.6 ± 6.5. The “Locomotor Mean ± SD” value [1, 13] was 6250.1 ± 789.2, the “Rearing Mean ± SD” value [1, 13] was 35.1 ± 7.4 and the “Sniffing Down Mean ± SD” value [1, 13] was 18.3 ± 3.6. The “Sniffing Up Mean ± SD” value [1, 13] was 33.1 ± 7.5.
